How the values were obtained:
[1] = tested on: chondrosarcoma tumour spheres (SW1353); experiment: Small molecule treatment of chondrosarcoma tumour spheres, nuclei counted by DAPI staining; format: cell-based, human; conditions: bone 3D tumour spheres; for cancer cell number in comparison with Control 1: 72 hours, Control 1 = 0.1% DMSO
Experimental: (§1) SW1353 (chondrosarcoma) cells were cultured in 1:1 DMEM/F-12 Supplement (Thermo Fisher Scientific) containing 10% (volume/volume) fetal bovine serum (Sigma Aldrich). Cells were fed with culture medium every other day and maintained at 37° C. in a […] atmosphere of 5% CO2. Cells were obtained from ATCC and authenticated by STR profiling. Cells were regularly monitored for Mycoplasma infection by PCR. Phenotypic checks for interleukin 1 response ensured cell phenotype was maintained.
For the experiment reported in FIG. 8(b) the culture medium additionally contained 1% (v/v) penicillin streptomycin.
(§2) Tumour spheres were constructed as previously described (Greco, K. V. et al. High density micromass cultures of a human chondrocyte cell line: a reliable assay system to reveal the modulatory functions of pharmacological agents. Biochem Pharmacol 82, 1919-29 (2011), the contents of which are incorporated herein by reference). Briefly, 80% confluent monolayer cell cultures were released by trypsin-EDTA and resuspended in growth medium at a density of 4.1×10^4 cells/mL. Tumour spheres were achieved by pipetting 20 μL of cell suspension into individual wells of 24 well plates. Following a 3 hour intermolecular cohesion period 500 μL of growth medium was gently added. Cultures formed three dimensional spheres over the next 24 hours.
Growth media on chondrosarcoma tumour spheres was replaced with fresh media containing 0.1% DMSO (control 1), fresh media containing 0.2% DMSO (control 2), fresh media containing 50 μM small molecule 3-(N-(3,4-dichlorophenyl)carbamoyl)-5-norbornene-2-carboxylic acid, also named 3-{[(3,4-dichlorophenyl)amino]carbonyl}bicyclo[2.2.1]hept-5-ene-2-carboxylic acid, known as CADD522, fresh media containing 100 μM small molecule (CADD522). […] DAPI fluorescence was excited at 365 nm and emission collected between 420 and 470 nm. Nuclear DAPI staining was segmented with the number of the nuclei quantified using ImageJ. […] Statistical significance ([…]) was calculated using an unpaired t test with Prism 6.

[2] = tested on: RUNX2; experiment: qPCR transcriptional profiling of transfected tumour spheres: RUNX2; format: cell-based, human; conditions: 50 nM mimic, pooled RNA of 6 replicates, normalised to ACTB, compared to control tissue
Experimental: (§3) Once tumour spheres had formed, tRF mimics (RNA), tRF inhibitors (LNA), miRNA mimics (LNA) and miRNA inhibitors (LNA) (Exiqon) were transfected using Lipofectamine 3000 (Thermo Fisher Scientific) in reduced serum media (Thermo Fisher Scientific) for a final concentration of 50 nM consisting of equal parts of each mimic or inhibitor (sequences in Table 1 above). Confirmation of cell entry at 50 nM concentration was determined after performing the transfection with FAM labelled sequences. After 6 hours of incubation reduced serum media containing mimics or inhibitors was replaced with fresh growth media. Tumour spheres were subjected to histology, fluorescence microscopy and transcriptional profiling 48 hours later. Transfections were performed in triplicate in 3 independent experiments.
(§4) We used qPCR as previously described (Fricke, C., Green, D., Smith, D., Dalmay, T. & Chapman, T. MicroRNAs influence reproductive responses by females to male sex peptide in Drosophila melanogaster. Genetics 198, 1603-19 (2014), the contents of which are incorporated herein by reference). Due to a limited amount of RNA, qPCR was performed on pools of control tissue, low grade, intermediate grade and high grade tumours. We also extracted and pooled RNA from 6 replicates of tumour spheres treated with a tRF-Gly-TCC mimic. […]

[3] = biological target: YBX1 (Homo sapiens, UniProt P67809); conditions: Goodarzi et al., Cell 161, 790-802 (2015); cited from earlier work
Chain of YBX1 (Homo sapiens, UniProt P67809) (P67809 whole entry): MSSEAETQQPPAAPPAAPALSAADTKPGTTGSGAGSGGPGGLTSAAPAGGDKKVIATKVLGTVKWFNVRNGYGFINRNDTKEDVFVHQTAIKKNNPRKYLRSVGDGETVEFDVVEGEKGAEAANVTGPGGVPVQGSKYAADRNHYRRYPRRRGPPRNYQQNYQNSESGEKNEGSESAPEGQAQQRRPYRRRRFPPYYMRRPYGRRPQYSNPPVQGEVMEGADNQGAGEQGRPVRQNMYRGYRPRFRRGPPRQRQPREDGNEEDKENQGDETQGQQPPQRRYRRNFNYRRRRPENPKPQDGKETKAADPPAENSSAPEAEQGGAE

[4] = tested on: YBX1; experiment: qPCR transcriptional profiling of transfected tumour spheres: YBX1; format: cell-based, human; conditions: 50 nM mimic, pooled RNA of 6 replicates, normalised to ACTB
Experimental: as §3, §4

[5] = tested on: HDAC4; experiment: qPCR transcriptional profiling of transfected tumour spheres: HDAC4; format: cell-based, human; conditions: 50 nM mimic, pooled RNA of 6 replicates, normalised to ACTB, compared to high grade tumours
Experimental: as §3, §4

[6] = tested on: SOX9; experiment: qPCR transcriptional profiling of transfected tumour spheres: SOX9; format: cell-based, human; conditions: 50 nM mimic, pooled RNA of 6 replicates, normalised to ACTB, compared to control tissue
Experimental: as §3, §4

[7] = tested on: PTHLH; experiment: qPCR transcriptional profiling of transfected tumour spheres: PTHLH; format: cell-based, human; conditions: 50 nM mimic, pooled RNA of 6 replicates, normalised to ACTB
Experimental: as §3, §4

[8] = tested on: IHH; experiment: qPCR transcriptional profiling of transfected tumour spheres: IHH; format: cell-based, human; conditions: 50 nM mimic, pooled RNA of 6 replicates, normalised to ACTB
Experimental: as §3, §4

[9] = tested on: chondrosarcoma tumour spheres (SW1353); experiment: Tumour sphere assay with LNA and RNA transfection, histology and fluorescence microscopy; format: cell-based, human; conditions: 50 nM, 48 hours after transfection
Experimental: as §1
as §2, with “Following a 3 hour intermolecular cohesion period 500 μL of growth medium was gently added. Cultures formed three dimensional spheres over the next 24 hours.” left out
as §3, with “After 6 hours of incubation reduced serum media containing mimics or inhibitors was replaced with fresh growth media.” left out, “Transfections were performed in triplicate in 3 independent experiments.” left out
Tumour spheres were fixed in 3.7% formaldehyde and treated with 0.2% Triton-X 100. […] DAPI fluorescence was excited at 365 nm and emission collected between 420 and 470 nm. Texas Red-X Phalloidin fluorescence was excited at 558 nm and emission collected through a 615 nm LP filter. Nuclear DAPI staining was segmented with the number and size of the nuclei quantified using ImageJ.

[10] = tested on: TP53; experiment: qPCR transcriptional profiling of transfected tumour spheres: TP53; format: cell-based, human; conditions: 50 nM mimic, pooled RNA of 6 replicates, normalised to ACTB, compared to control tissues
Experimental: as §3, §4

[11] = tested on: ANG; experiment: qPCR transcriptional profiling of transfected tumour spheres: ANG; format: cell-based, human; conditions: 50 nM mimic, pooled RNA of 6 replicates, normalised to ACTB
Experimental: as §3, §4

Compound	cancer cell number in comparison with Control 1 ([1]; 50 μM)	cancer cell number in comparison with Control 1 ([1]; 100 μM)	cancer cell number compared to controls ([1]; two biological replicate controls, unpaired t test)	RUNX2 mean relative expression [2]	binding to YBX1 [3]	YBX1 mean relative expression [4]	HDAC4 mean relative expression [5]	SOX9 mean relative expression [6]	PTHLP expression [7]	IHH mean relative expression [8]	decrease in nuclear area compared to untreated tumour spheres [9]	phenotypic effect (nuclear and F-actin histology, inverted microscopy) [9]	nuclear area of tumour spheres ([9]; n=47 nuclei, untreated 488±12.4 μm^2 (n=230)) [μm^2]	TP53 mean relative expression [10]	ANG mean relative expression [11]
O=C(O)C1C2C=CC(C2)C1C(=O)Nc1ccc(Cl)c(Cl)c1 (stereo not shown) [CADD522, 3-(N-(3,4-dichlorophenyl)carbamoyl)-5-norbornene-2-carboxylic acid]	about 70%	about 30%	significant reduction of cancer cell number												
TRF-Gly-TCC: endogenous tRNA derived fragment containing a SCUBYC sequence motif (GCGUUGGUGGUAUAGUGGUGAGCAUAGCUGCC; listed as RNA, chemistry not fully specified)				reduces RUNX2 expression to control levels	substantial binding	increased expression									
tRF-Gly-TCC mimic: RNA mimic, sequence GCGUUGGUGGUAUAGUGGUGAGCAUAGCUGCC (listed as RNA, chemistry not given here)				reduced to the same level of expression as control tissue			increases further	remains at a reduced expression	lost	greatly reduced	more than two-fold decrease in nuclear area	low cancer cell number, shrunken nuclei and visible changes to morphology	215±16.8	reduces to be consistent with control tissues	greatly reduced

Source: patent publication US20220065865A1, “METHODS OF TREATMENT AND DIAGNOSIS OF TUMOURS” (UEA ENTERPRISES LIMITED, priority 2018, published 2022)
